Experimental data published in a melting point compilation (Tetko et al.; mined from patent text by program, amines drawn as free bases though some values may be those of a salt).

| Structure (SMILES) | melting point [°C] |
| --- | --- |
| O=c1c(Cc2ccc(-c3ccccc3)cc2)coc2cc(OS(=O)(=O)C(F)(F)F)ccc12 | 110 |
| CCCCc1nc2c(n1Cc1ccc(-c3ccccc3S(N)(=O)=O)cc1)C(=O)C(F)CS2 (centres undefined) | 208 |
| CCCc1c(O)ccc(C(=O)c2ccccc2O)c1O | 110 to 113 |
| O=C(O)C=CC(F)(F)F | 95 to 100 |
| COc1cc([N+](=O)[O-])c2nccc(C)c2c1OCCCCCc1ccco1 | 47 to 49 |
| O=S(=O)(Nc1ccccc1CO)C(F)(F)F | 60 to 61 |
| CC(C)c1ccc(S(=O)(=O)n2c(Cc3ccc(C(=O)O)c(O)c3)cc3cc(C(F)(F)F)ccc32)cc1 | 150 |
| CC(C)CC(=O)Nc1cccc(-c2ccnc3c(-c4ccc(CO)cc4)cnn23)c1 | 170 to 172 |
| CS(=O)(=O)Nc1ccc2c(c1)S(=O)(=O)NC(C1CCCCC1)N2 (centres undefined) | 255 to 258 |
| CC1(C)CCC(C)(C)c2cc(N)ccc21 | 63 to 65 |
| CC(O)C(CCCc1ccccc1)n1ncc2c(=O)[nH]c(Cc3ccc(Cl)cc3)nc21 (centres undefined) | 101 |
| CCOC(=O)/C=C(C)/C=C/C=C(C)/C=C/c1c(C)coc1C | 98 to 101 |
| COc1cccc(CCc2ccccc2OC[C@H]2CCCN(C(=O)OC(C)(C)C)C2)c1 | 150 to 152 |
| CC(C)NC(=O)Nc1ccnc(Br)c1 | 136 to 138 |
| Clc1ccc(Sc2ncccn2)cc1 | 68 to 70 |
| Nc1ccccc1NC(=O)c1ccc(CNC(=O)c2[nH]c(-c3ccsc3)cc2-c2ccc(O)cc2)cc1 | 135 to 137 |
| Cc1ncnc(C)c1N | 98 to 100 |
| CSC(C(=O)c1nsc(NC=O)n1)S(C)=O (centres undefined) | 130 to 132 |
| CC(=O)OC1CSC(Oc2cccnc2CN(C)C)C(OC(C)=O)C1OC(C)=O (centres undefined) | 105 |
| O=C(Nc1cc(Cl)ccc1S(=O)(=O)c1ccc(Cl)cc1)N[C@@H](Cc1ccc(NC(=O)c2c(Cl)cccc2Cl)cc1)C(=O)O | 239 |
| O=C(O)CCc1ccc(OCc2ccc(CN(CCc3ccccc3)c3nc(-c4ccccc4)cs3)cc2)cc1 | 114 to 115 |
| O=C(c1ccccc1)c1cccc2c(Cl)c[nH]c12 | 145 to 149 |
| CCCCCCCNC(=O)Nc1ccccc1C(=O)NC1CCCN(C(c2ccccc2)c2ccccc2)C1 (centres undefined) | 112 |

| Structure (SMILES) | melting point [°C] |
| --- | --- |
| N#Cc1c(N2CCCN(c3cccc(C(F)(F)F)c3)CC2)cc[nH]c1=S | 247 to 248 |
| CCCCCCCCNC(=O)c1cscc1C(=O)O | 120 to 122 |
| O=C(OCc1ccccc1)N1CCN(C(=O)C(Cc2ccc(O)cc2)NS(=O)(=O)c2cccc3cnccc23)CC1 (centres undefined) | 137 to 141 |
| O=C1C=C(O)CC(CCC2CCCC2)(C2CCCC2)O1 (centres undefined) | 130 to 132 |
| CC(C)C(NS(=O)(=O)c1ccc(-c2cccc(CNC(=O)c3nc4ccccc4c(=O)[nH]3)c2)cc1)C(=O)NO (centres undefined) | 153 to 155 |
| Nc1ccc(S(=O)(=O)Nc2cccc3c(Cl)c[nH]c23)cn1 | 206 to 207 |
| CCCCCCOc1ccc(CBr)c2c(OCCCCCC)ccc(CBr)c12 | 105 to 107 |
| O=S(=O)(Nc1ccc2c(OCc3ccc(-c4ccc(F)cc4)cc3F)cccc2c1)C(F)(F)F | 134 to 136 |
| Cc1cccnc1C(=O)NCCNC(=O)OC(C)(C)C | 81 to 82 |
| Cn1c([N+](=O)[O-])cnc1-c1nc(C=O)cs1 | 180 to 182 |
| CCCOc1cc2c(cc1-c1cc(-c3ccc(C(=O)O)cc3)ccc1-c1ccccc1)C(C)(C)CCC2(C)C | 234 |
| O=C(O)CCCCC(=O)NC1C=CCCCC1 (centres undefined) | 132 to 133 |
| O=C(O)c1c2c(nc3ccc(F)cc13)-c1ccc(-c3cccs3)cc1CCC2 | > 300 |
| N#CCNC(=O)C1(NC(=O)c2ccc(N3CCN(C(=O)OCC4c5ccccc5-c5ccccc54)CC3)cc2)CCCCC1 | 192 to 194 |
| O=C1CCc2c(Br)cc(F)cc21 | 129 to 131 |
| N#Cc1cc(F)c(Cl)c(Br)c1Cl | 110 to 112 |
| COc1cc(OC)nc(NC(=O)NS(=O)(=O)N=CN(C)CSC)n1 | 167 to 168 |
| CCNC1C=CC=C(Oc2ccc(F)cc2)C1(Cl)[N+](=O)[O-] (centres undefined) | 69 to 70 |
| O=C(NCCO)/C(=C/c1ccc(OC(F)(F)F)cc1)NC(=O)c1ccc(OCCC2CC2)cc1 | 142 to 144 |
| O=C(O)c1cc2c(c(O)c1Br)OCO2 | 196 to 205 |
| Brc1ccc(N2CCN(CCCOc3ccc(C4=NCCO4)cc3)CC2)nn1 | 169 |
| CCCCC1(CCCC)CCc2c(OCc3ccc4ccccc4n3)ccc(Cl)c2C1O (centres undefined) | 142 to 144 |
| c1ccc(C(OC2CCN(CCCCNc3ccc4nncn4n3)CC2)c2ccccc2)cc1 | 145 to 146 |

| Structure (SMILES) | melting point [°C] |
| --- | --- |
| CC(C)CCCC(O)(Cn1cncn1)C(C)(C)C (centres undefined) | 45 to 48 |
| CN(CSC(C)(C)C)C(=O)Nc1cccc(C(F)(F)F)c1 | 96 to 99 |
| CC(C)(C)OC(=O)N1C[C@@H]2C(=O)CCC(c3ccccc3)(c3ccccc3)[C@@H]2C1 | 119 |
| CON=Cc1nn(-c2c(Cl)cc(C(F)(F)F)cc2Cl)c(N)c1SC(F)(F)F | 129 to 132 |
| Cc1ccc(OC(=O)CCCC(=O)OOC(C)(C)C)cc1 | 50 to 55 |
| CCC(=CC(CNC(=O)c1ccc(C)nc1)=NO)C(C)[N+](=O)[O-] (centres undefined) | 150 to 151 |
| CNC(=O)C(NC(=O)C(CC(C)C)C(S)CC(=O)OC)C(C)OCc1ccccc1 (centres undefined) | 113 to 119 |
| Cc1ccccc1-c1cccc(C=NNC(=S)NN2CCCC2)n1 | 172 to 173 |
| CC(C)c1ccnc(NC(=S)NCCC2=CCCCC2)c1 | 105 to 106 |
| CSc1sc(-c2cccnc2)c2c1C(=O)C(=CO)C(C)(C)C2 | 154 to 156 |
| COC(=O)C(C#N)c1ccccc1[N+](=O)[O-] (centres undefined) | 58 to 60 |
| O=C1Nc2cc(CN3CCC(c4ccccc4)CC3)ccc2OC1F (centres undefined) | 217 to 221 |
| O=C(Nc1cccc(Cl)c1C(=O)O)c1ccc(F)cc1 | 228 to 233 |
| Nc1ccc(C#CCCN2CCC(O)(c3ccc(Cl)cc3)CC2)cc1 | 134 to 136 |
| Nc1nc(-c2cccnc2Cl)c(-c2cccnc2Cl)s1 | 273 to 274 |
| Cc1cn(C2CCc3ccccc3C2)c(=S)n1Cc1ccc(C(=O)O)cc1 (centres undefined) | 181 to 182 |
| COCCNc1sc(-c2cc[nH]n2)c2c1C(=O)CC(C)(C)C2 | 171 to 173 |
| O=C1c2ccccc2CN1CCC#Cc1ccccn1 | 94 to 98 |
| COc1nc(NCCNC(C)C)nc(OC)c1[N+](=O)[O-] | 135 |
| Cc1nc(C#N)nc(NCC(F)(F)F)c1I | 103 to 105 |
| O=C1NN=C(c2ccc(Cl)cc2)C2CC12 (centres undefined) | 199 to 200 |
| COc1ccc2c(C)c(Cl)ccc2c1C(F)(F)F | 102 to 103 |

More lines, now with the values ahead:

| melting point [°C] | Structure (SMILES) |
| --- | --- |
| 161 to 163 | CCc1cc(O)c2cnn(C(C)=O)c2c1 |
| 116 to 118 | CON(C)C(=O)Nc1ccc(CN2OCCC(C)(C)C2=O)c(Cl)c1 |
| 88 to 89 | COC(=O)CN(C)c1nc(-c2ccc(Cl)c(Cl)c2)cs1 |
| 254 | Cc1ccc(C#N)cc1-c1cc2cnc(NC3CCOCC3)nc2n(C)c1=O |
| 123 to 124 | C#CCc1c(C)nc2c(OCc3ccccc3C)nccn12 |
| 124 to 126 | O=C(c1ccccc1)c1ccc2nc(Br)c(C(F)(F)F)nc2c1 |
| 230 to 232 | CS(=O)(=O)OCC1CSC2=C(O1)c1ccccc1C(=O)C2=O (centres undefined) |
| 109 to 111 | COC(=O)/C(=N/N(C)C)c1ccc(OCCOc2ccc3ccccc3c2)cc1 |
| 188 to 189 | CCOC(=O)c1ncc2c(c1CBr)c1ccccc1n2C(C)=O |
| 121 to 123 | COC(=O)C=Cc1cc2c(nc1C)C(=Cc1ccccc1)CCC2 |
| 125 to 126 | CCOC(=O)c1c(CCl)nc2ccc(C)cc2c1-c1ccc(OC)c(OC)c1 |
| 56 to 59 | COc1ccc(C(=O)c2cccc(C(F)(F)F)c2)cc1C |
| 199 to 200 | CCc1cccc(-c2cnc3[nH]cc(C(=O)C(C)(C)C)c3n2)c1 |
| 62 to 63 | COC1=C(Cc2ccc(Cl)cc2)C(=O)CC(C)(C)C1 |
| 224 | Cn1c(=O)n(Cc2cccs2)c(=O)c2cc(C(=O)NCc3ccc4c(c3)OCO4)ccc21 |
| 160 | CCCC1(C(C)C)NC(=S)N(c2cc(Cl)cc(Cl)c2)C1=O (centres undefined) |
| 119 to 120 | CC(=O)N(O)Cc1ccc(OCc2ccccc2)cc1 |
| 219 to 224 | COC(=O)C(C#N)c1nc(-c2c(F)cccc2F)cs1 (centres undefined) |

| melting point [°C] | Structure (SMILES) |
| --- | --- |
| 184 to 186 | COc1cc(C(C)C)c2c(c1)S(=O)(=O)N(COc1cc(=O)n3c(n1)CCCC3)C2=O |
| 150 to 151 | CCc1nn2c(N3CCNCC3)cc(C)nc2c1S(=O)(=O)c1ccccc1 |
| 157 to 159 | CC[C@H]1COC(=O)N1c1nc(-c2ccc(C#N)cc2)c(F)s1 |
| 133 to 135 | COc1ccc2cc(C=O)ccc2c1Br |
| 115 to 118 | COc1cc(C(O)c2cnc(Cl)nc2Cl)cc(OC)c1OC (centres undefined) |
| 129 to 130 | CC(=O)Oc1cc(OCc2ccccc2)cc(OC(C)=O)c1 |
| 119 to 120 | CCCCC(=O)c1c(C)nc2cc(OC)c(OC)cc2c1-c1ccc(OC)c(OC)c1 |
| 92.5 | CCCCOc1ccc(S(=O)(=O)C2(C(=O)O)CCN(Cc3cccc(Oc4ccccc4)c3)CC2)cc1 |
| 302 to 308 | CCCOC(=O)Oc1ccc(-c2nc3c(N)nc(N)nc3nc2N)cc1 |
| 77 to 81 | CCCOc1cc(CCCOc2nn(C)cc2CC(=O)O)n(Cc2ccc(Cl)cc2Cl)n1 |
| 176 to 178 | COc1ccc2c(C3CCN(CCCn4c(=O)[nH]c5ccccc54)CC3)noc2c1 |
| 47 to 50 | COC(=O)C=CC(C)=Cc1cc(N)ccc1Cl |
| 325 to 328 | O=C1NC(=S)SC1=Cc1ccnc2ccccc12 |
| 118 | Cc1nn(C)c(F)c1C(=O)Nc1ccccc1C(C)C(O)C(C)C (centres undefined) |
| 236 to 239 | CC(=O)N1CCC(=O)NCc2ccccc21 |
| 214 to 217 | O=C(c1ccc2c(c1)OC(F)(F)C(=O)N2)N1CCOCC1 |
| 81 to 82 | CC(C)n1nc(OCc2ccccc2)cc1CO |
| 216 to 220 | CCOC(=O)Oc1ccc2nc(S)n(C)c(=O)c2c1 |
